Tested on: Mycobacterium smegmatis containing plasmid PMV261-Kana^R-65S-RecA intein
Assay: Intein splicing inhibitor screening system: growth (OD600) of Mycobacterium smegmatis carrying Kana^R-65S-RecA intein in kanamycin medium
Conditions: 20 μM cisplatin, kanamycin 50 μg/mL plus hygromycin, 37° C., 100 h

N.N.[Cl][Pt][Cl] [cisplatin]
inhibition rate of growth of Mycobacterium smegmatis containing plasmid PMV261-Kana^R-65S-RecA intein: 62%

Source: patent US20230392179A1 (SOOCHOW UNIVERSITY, priority 2021, published 2023)
